Data published in paper PMC4832822, “Investigating the Influence of (Deoxy)fluorination on the Lipophilicity of Non‐UV‐Active Fluorinated Alkanols and Carbohydrates by a New log P Determination Method” (Angewandte Chemie (International Ed. in English), 2015).
Values joined by “and” are separate entries in the source; they are usually repeats but may differ in a detail not shown here. Identical values can stand only once. Like-named read-outs stand apart in the source and are kept apart here.

Experiments:
[1] = log P determination by 19F NMR shake-flask method with internal fluorinated reference (octanol/water); settings: for ΔlogP (exp. logP vs logP lit): Table SI12
[2] = milogP calculated using Molinspiration Cheminformatics; settings: Table SI14
[3] = cited from earlier work
[4] = octanol/water, logP, 19F NMR, 25 °C, average value
[5] = method and temperature not provided, ref U.S. National Library of Medicine online database (chemidplus)
[6] = octanol/water, error (mean logP to three decimals), reference TFE (+0.36)
[7] = octanol/water, logP, single experiment, reference TFE (+0.36)
[8] = octanol/water, Average logP, 25 °C, reference TFE (+0.36)
[9] = ref chemidplus database and N. Muller 1986
[10] = single experiment, reference TFE (+0.36)
[11] = octanol/water, Average logP, reference 4,4,4-trifluoro-1-butanol (TB, +0.91EXP)
[12] = octanol/water, error (mean logP to three decimals), reference TB (+0.91EXP)
[13] = octanol/water, logP, single experiment, reference 4,4,4-trifluoro-1-butanol (TB, +0.91EXP)
[14] = octanol/water, Average logP, 25 °C, reference FE (-0.75)
[15] = octanol/water, error (mean logP to three decimals), reference FE (-0.75)
[16] = single experiment, reference FE (-0.75)

Row | logP [1, 4] | ΔlogP (milogP vs logP exp) [2] | logP [1, 6] | logP [1, 7] | logP [1, 8] | SMILES | further results
1 | 3.21 | -0.51 |  |  |  | CC(C)(C)[C@H]1CC[C@@H](O)[C@H](F)C1 (relative stereo) [compound 44] | 
2 | 0.7 | +0.27 | 0.715 | 0.712 | 0.71 | CC(O)C(F)(F)F (stereo not shown) [compound 6] | logP (lit) ([3]; ref chemidplus database, Dillingham et al. 1973 and Hansch, Leo 1979): +0.71; logP (lit) ([3]; shake-flask, 1H or 19F NMR, temperature not reported, ref N. Muller, J. Pharm. Sci. 1986): +0.70
3 | 0.11 | +0.59 | 0.11 | 0.113 | 0.11 | CC(F)(F)CO [compound 11] | 
4 | 0.42 | +0.46 | 0.417 | 0.42 | 0.42 | CC(O)CC(F)F (stereo not shown) [compound 17] | 
5 | 0.91 | +0.24 | 0.91 | 0.918 | 0.91 | OCCCC(F)(F)F [compound 23, 4,4,4-trifluoro-1-butanol] | Average logP ([1]; 25 °C, reference TFE (+0.36)): +0.91; ΔlogP (exp. logP vs logP lit) [1]: +0.01; logP ([1]; octanol/water, 19F NMR, 25 °C, average value): +0.91; logP (lit) [3, 9]: +0.90
6 |  | +0.49 | 0.477 | 0.476 | 0.48 | C[C@H](O)C[C@@H](C)F [compound 26] | logP [1, 10]: +0.476
7 | 0.57 | +0.40 | 0.569 | 0.57 | 0.57 | C[C@H](O)C[C@H](C)F [compound 27] | 
8 |  | +0.67 | 0.662 | 0.659 | 0.66 | CC(O)CC(C)(F)F (stereo not shown) [compound 28] | 
9 | 1.58 | +0.40 |  |  |  | CC[C@H](O)C[C@H](F)CC [compound 37] | logP [1, 11]: 1.58; logP [1, 12]: 1.58; logP [1, 13]: 1.58
10 | 1.71 | +0.27 |  |  |  | CC[C@H](O)C[C@@H](F)CC [compound 38] | logP [1, 11]: 1.71; logP [1, 12]: 1.71; logP [1, 13]: 1.69
11 |  | +0.63 |  |  |  | OC[C@H](F)[C@@H](F)CO [compound 39] | logP [1, 14]: -1.01; logP [1, 15]: -1.01; logP [1, 16]: -1.006 and -1.012
12 |  | +0.59 |  |  |  | OC[C@@H](F)[C@@H](F)CO [compound 40] | logP [1, 14]: -0.97; logP ([1]; octanol/water, Average logP, internal validation, reference -1.01EXP): -0.98; logP ([1]; octanol/water, error (mean logP to three decimals), internal validation, reference -1.01EXP): -0.98; logP [1, 15]: -0.968; logP ([1]; single experiment, internal validation, reference -1.01EXP): -0.981 and -0.984 and -0.975; logP [1, 16]: -0.957
13 | -2.47 | +0.32 |  |  |  | O=C[C@H](O)[C@@H](F)[C@@H](O)[C@H](O)CO [compound 46, 3-Fluoro-3-deoxy-D-galactose] | 
14 | -2.37 | +0.44 |  |  |  | O=C[C@H](F)[C@@H](O)[C@@H](O)[C@H](O)CO [compound 47, 2-Fluoro-2-deoxy-D-galactose] | 
15 | -2.36 | +0.65 |  |  |  | O=C[C@H](O)[C@@H](O)[C@H](O)[C@H](O)CF [compound 48, 6-Fluoro-6-deoxy-D-glucose] | 
16 |  | +0.07 | -0.576 |  | -0.58 | OC[C@H]1OC(O)C(F)(F)C(F)(F)[C@H]1O (stereo partly drawn) [compound 53, 2,3-Dideoxy-2,2,3,3-tetrafluoro-D-threo-hexopyranose] | logP [1, 10]: -0.574 and -0.573 and -0.583

Second part, the molecule before the results:

Row | SMILES | logP [1, 4] | ΔlogP (milogP vs logP exp) [2] | logP [1, 6] | logP [1, 7] | logP [1, 8] | further results
17 | CC(C)(C)[C@H]1CC[C@H](O)[C@H](F)C1 (relative stereo) [compound 42] | 2.63 | +0.07 |  |  |  | 
18 | CCCC(C)O (stereo not shown) [G, 2-PentOH, reference compound] |  |  |  |  |  | logP (lit) [3, 5]: +1.19
19 | CC(C)(C)[C@H]1CC[C@H](O)CC1 [K, reference compound] |  |  |  |  |  | logP (lit) [3, 5]: +3.09
20 | CC(C)(C)[C@H]1CC[C@@H](O)CC1 [L, reference compound] |  |  |  |  |  | logP (lit) [3, 5]: +3.02
21 | Oc1ccccc1F [SI4, o-fluorophenol] | 1.7 | +0.13 | 1.7 | 1.7 |  | logP (lit) ([3]; method and temperature not provided, ref C. Hansch, A. Leo, Substituent constants, Wiley 1979): +1.64; logP (lit) ([3]; ref chemidplus database, Hansch, Leo 1979 and Fujita, Iwasa, Hansch 1964 (shake-flask, spectrophotometer, 25 ± 5 °C)): +1.71
22 | OCC(F)(F)F [compound 3, 2,2,2-Trifluoroethanol] |  | +0.25 |  |  |  | 
23 | OC(CF)CF [compound 4] |  |  |  |  |  | Average logP ([1]; 25 °C, reference TFE (+0.36)): -0.42; logP (physchem; Average logP, 25 °C, reference TFE (+0.36)): -0.42; logP (physchem; error (mean logP to three decimals)): -0.421; logP (physchem; logP, octanol/water, 19F NMR, 25 °C, average value): -0.42; logP (physchem; logP, single experiment, reference TFE (+0.36)): -0.42
24 | OC(C(F)(F)F)C(F)(F)F [compound 7] |  |  | 1.69 | 1.69 | 1.69 | ΔlogP (exp. logP vs logP lit) [1]: +0.03; logP (lit) [3, 5]: +1.66
25 | OCCC(F)F [compound 10] |  | +0.48 | 0.038 | 0.033 | 0.04 | 
26 | OCCC(F)(F)F [compound 12] |  | +0.47 | 0.414 | 0.413 | 0.41 | ΔlogP (exp. logP vs logP lit) [1]: +0.02; logP (lit) [3, 9]: +0.39
27 | OCC(F)(F)C(F)(F)F [compound 13, CF3CF2CH2OH] | 1.2 | +0.05 | 1.2 | 1.2 | 1.2 | Average logP ([1]; 25 °C, reference TFE (+0.36)): +1.20; ΔlogP (exp. logP vs logP lit) [1]: -0.03; logP ([1]; octanol/water, average logP, mA 2.0 mg, mREF 0.8 mg, reference CF3CH2OH): 1.2; logP ([1]; octanol/water, average logP, mA 10.0 mg, mREF 4.0 mg): 1.2; logP ([1]; octanol/water, average logP, mA 70.0 mg, mREF 30.0/70.0 mg): 1.18; logP ([1]; octanol/water, average logP, mA 120.0 mg, mREF 60.0 mg): 1.18; logP ([1]; octanol/water, logP, single experiment, mA 2.0 mg, mREF 0.8 mg, reference CF3CH2OH): 1.2; logP ([1]; octanol/water, logP, single experiment, mA 10.0 mg, mREF 4.0 mg): 1.2; logP ([1]; octanol/water, logP, single experiment, mA 70.0 mg, mREF 30.0/70.0 mg): 1.18; logP ([1]; octanol/water, logP, single experiment, mA 120.0 mg, mREF 60.0 mg): 1.17; mean logP ([1]; reference TFE (+0.36)): 1.200; logP ([1]; single experiment, mA 2.0 mg, mREF 0.8 mg, reference CF3CH2OH): 1.200; logP ([1]; single experiment, mA 10.0 mg, mREF 4.0 mg): 1.200 and 1.195; logP ([1]; single experiment, mA 70.0 mg, mREF 30.0/70.0 mg): 1.179; logP ([1]; single experiment, mA 120.0 mg, mREF 60.0 mg): 1.178 and 1.174; logP [1, 10]: +1.200 and +1.199; logP (lit) ([3]; ref chemidplus database, Hansch, Leo 1979 and Leo, Elkins, Chem. Rev. 1971): 1.23
28 | CC(C)(O)C(F)(F)F [compound 14] |  | +0.39 | 1.03 | 1.03 | 1.03 | 
29 | CC(O)CC(F)(F)F (stereo not shown) [compound 18] | 0.71 | +0.53 | 0.721 | 0.725 | 0.72 | ΔlogP (exp. logP vs logP lit) [1]: +0.01
30 | O=C[C@H](F)[C@@H](O)[C@H](O)[C@H](O)CO [compound 49, 2-Fluoro-2-deoxy-D-glucose] | -2.21 | +0.28 |  |  |  | 
